≈ marks a conversion by molar mass, not a printed value. Read-outs that look alike come from different tables or passages of the source.
What was measured:
E. coli K12 PBP3 = biological target: T1, E. coli K12 PBP3 (Escherichia coli, UniProt P0AD68); experiment: biochemical; assay type: binding
T1 construct: made in house
How it was run: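 A. baumannii PBP2 (2.5 μM) and PBP3 (0.2 μM) were run in 25 mM Tris pH 8.0 buffer with Tween 20; E. coli PBP3 (1.5 μM) and N. gonorrhoeae PBP2 ([…]) in 50 mM Hepes pH 8.0 buffer.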

P. aeruginosa PBP3 = biological target: T2, P. aeruginosa PBP3 (Pseudomonas aeruginosa, UniProt G3XD46); experiment: Bocillin-FL fluorescence polarization competition binding assay, P. aeruginosa PBP3; settings: fluorescence polarization competition binding assay using Bocillin-FL
T2 construct: made in house
T2 sequence (G3XD46 whole entry): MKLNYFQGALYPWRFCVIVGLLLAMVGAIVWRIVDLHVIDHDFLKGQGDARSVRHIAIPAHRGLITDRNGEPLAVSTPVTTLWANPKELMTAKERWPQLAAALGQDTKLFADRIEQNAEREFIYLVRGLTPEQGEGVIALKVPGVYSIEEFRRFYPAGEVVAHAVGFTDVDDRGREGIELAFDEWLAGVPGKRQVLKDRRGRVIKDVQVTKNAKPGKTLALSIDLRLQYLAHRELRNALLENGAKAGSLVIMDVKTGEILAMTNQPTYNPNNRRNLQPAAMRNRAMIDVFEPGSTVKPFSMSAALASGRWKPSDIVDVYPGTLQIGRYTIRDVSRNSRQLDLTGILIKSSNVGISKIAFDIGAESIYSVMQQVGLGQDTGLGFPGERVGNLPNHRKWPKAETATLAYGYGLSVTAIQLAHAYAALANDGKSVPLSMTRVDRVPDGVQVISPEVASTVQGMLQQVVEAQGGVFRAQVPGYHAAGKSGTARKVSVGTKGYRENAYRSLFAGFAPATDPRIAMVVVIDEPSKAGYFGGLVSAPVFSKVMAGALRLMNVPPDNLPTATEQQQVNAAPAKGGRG
How it was run: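 Inhibitor competition with Bocillin-FL for P. aeruginosa PBP3 was followed by fluorescence polarization on a Cytation3 (BioTek) reader, using g-factor 0.96, 490 nm excitation and 520 nm emission. The enzyme was at 0.75 μM and the probe at 0.1 μM in Hepes/NaCl/glycerol buffer, 80 μl per well. FP was recorded immediately after probe addition for up to 60 minutes. Potency was expressed as EC50, the concentration that reduces bound probe by 50%.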

[1] = tested on: K. pneumoniae SI-117 producing VIM-1; experiment: Broth microdilution MIC in CAMHB; assay type: cell-based; settings: Klebsiella pneumoniae, read-out: Minimum Inhibitory Concentration, K. pneumoniae SI-117
How it was run: (§1)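 Standard CLSI-style microdilution in cation-adjusted Mueller Hinton broth, 2-fold dilution series, incubated 16-20 h at 37° C; endpoint was visual absence of growth.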

P. aeruginosa ATCC 27853 = experiment: Broth microdilution MIC in CAMHB; assay type: cell-based; settings: Pseudomonas aeruginosa
How it was run: as §1

[2] = tested on: K. pneumoniae UMM producing SHV-5 and KPC-2; experiment: Broth microdilution MIC in CAMHB; assay type: cell-based; settings: Klebsiella pneumoniae, read-out: Minimum Inhibitory Concentration, K. pneumoniae UMM
How it was run: as §1

[3] = tested on: K. pneumoniae 848844 producing SHV-11 and KPC-2; experiment: Broth microdilution MIC in CAMHB; assay type: cell-based; settings: Klebsiella pneumoniae, read-out: Minimum Inhibitory Concentration, K. pneumoniae 848844
How it was run: as §1

E. coli 901C = experiment: Broth microdilution MIC in CAMHB; assay type: cell-based; settings: Escherichia coli, read-out: Minimum Inhibitory Concentration, E. coli 901C
How it was run: as §1

P. aeruginosa ATCC 35151 = experiment: Broth microdilution MIC in CAMHB; assay type: cell-based; settings: Pseudomonas aeruginosa
How it was run: as §1

[4] = tested on: P. aeruginosa (ΔmexAB-oprM); experiment: Broth microdilution MIC in CAMHB; assay type: cell-based; settings: Pseudomonas aeruginosa, read-out: Minimum Inhibitory Concentration, P. aeruginosa ΔmexAB-OprM
How it was run: as §1

[5] = ATCC27853, MHB, read-out: Minimum Inhibitory Concentration, P. aeruginosa ATCC 27853
[6] = E. coli 901C (hyper-permeable), MHB
[7] = ATCC35151, MHB, hyper-permeable strain, read-out: Minimum Inhibitory Concentration, P. aeruginosa ATCC 35151

T1 sequence (P0AD68 1-577): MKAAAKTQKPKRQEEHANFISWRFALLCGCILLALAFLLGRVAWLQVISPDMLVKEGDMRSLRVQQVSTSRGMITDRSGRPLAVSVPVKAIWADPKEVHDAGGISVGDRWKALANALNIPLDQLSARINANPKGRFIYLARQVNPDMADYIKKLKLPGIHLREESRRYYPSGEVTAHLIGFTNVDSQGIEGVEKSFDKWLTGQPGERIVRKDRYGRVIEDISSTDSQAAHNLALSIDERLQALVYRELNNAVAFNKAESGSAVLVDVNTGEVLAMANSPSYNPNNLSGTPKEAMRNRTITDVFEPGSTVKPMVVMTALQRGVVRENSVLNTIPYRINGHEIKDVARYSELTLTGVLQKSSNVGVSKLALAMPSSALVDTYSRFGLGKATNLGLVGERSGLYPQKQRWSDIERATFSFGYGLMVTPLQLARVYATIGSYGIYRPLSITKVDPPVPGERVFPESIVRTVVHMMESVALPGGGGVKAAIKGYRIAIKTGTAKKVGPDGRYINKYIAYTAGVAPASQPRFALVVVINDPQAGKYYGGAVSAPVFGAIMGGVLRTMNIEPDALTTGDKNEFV

SMILES	EC50 (E. coli K12 PBP3)	P. aeruginosa PBP3 Potency (P. aeruginosa PBP3)	MIC [1]	MIC (P. aeruginosa ATCC 27853; [5])	MIC [2]	MIC [3]	MIC (E. coli 901C; [6])	MIC (P. aeruginosa ATCC 35151; [7])	MIC [4]	MIC (P. aeruginosa ATCC 27853; ATCC27853, read-out: Minimum Inhibitory Concentration, P. aeruginosa ATCC 27853)	MIC (E. coli 901C; 901C)	MIC (P. aeruginosa ATCC 35151; ATCC35151, read-out: Minimum Inhibitory Concentration, P. aeruginosa ATCC 35151)
CCN1CCN(C(=O)NC(C(=O)N[C@H]2Cc3cccc(C(=O)O)c3OB2O)c2ccc(O)c(N)c2)C(=O)C1=O (stereo partly drawn) [Example 29, (3R)-3-(2-(3-amino-4-hydroxyphenyl)-2-(4-ethyl-2,3-dioxopiperazine-1-carboxamido)acetamido)-2-hydroxy-3,4-dihydro-2H-benzo[e][1,2]oxaborinine-8-carboxylic acid]	< 30 µM	D (D represents a potency <10 μM)	32 to 64 µg/mL (≈ 59.3 to 119 µM)	> 128 µg/mL	32 to 64 µg/mL (≈ 59.3 to 119 µM)	> 128 µg/mL	0.5 to 1 µg/mL (≈ 0.927 to 1.85 µM)	0.5 to 1 µg/mL (≈ 0.927 to 1.85 µM)	8 to 16 µg/mL (≈ 14.8 to 29.7 µM)	–	–	–
CCN1CCN(C(=O)NC(C(=O)N[C@H]2Cc3cccc(C(=O)O)c3OB2O)c2ccc(O)c(NS(N)(=O)=O)c2)C(=O)C1=O (stereo partly drawn) [Example 30, (3R)-3-(2-(4-ethyl-2,3-dioxopiperazine-1-carboxamido)-2-(4-hydroxy-3-(sulfamoylamino)phenyl)acetamido)-2-hydroxy-3,4-dihydro-2H-benzo[e][1,2]oxaborinine-8-carboxylic acid]	< 30 µM	D (D represents a potency <10 μM)	32 to 64 µg/mL (≈ 51.7 to 103 µM)	> 128 µg/mL	32 to 64 µg/mL (≈ 51.7 to 103 µM)	> 128 µg/mL	0.5 to 1 µg/mL (≈ 0.809 to 1.62 µM)	0.5 to 1 µg/mL (≈ 0.809 to 1.62 µM)	8 to 16 µg/mL (≈ 12.9 to 25.9 µM)	–	–	–
CCN1CCN(C(=O)NC(C(=O)N[C@H]2Cc3cccc(C(=O)O)c3OB2O)c2ccc(C(=O)O)c(F)c2)C(=O)C1=O (stereo partly drawn) [Example 31, (3R)-3-(2-(4-carboxy-3-fluorophenyl)-2-(4-ethyl-2,3-dioxopiperazine-1-carboxamido)acetamido)-2-hydroxy-3,4-dihydro-2H-benzo[e][1,2]oxaborinine-8-carboxylic acid]	< 30 µM	D (D represents a potency <10 μM)	> 128 µg/mL	32 to 64 µg/mL (≈ 56.1 to 112 µM)	32 to 64 µg/mL (≈ 56.1 to 112 µM)	> 128 µg/mL	< 0.25 µg/mL	< 0.25 µg/mL	8 to 16 µg/mL (≈ 14 to 28.1 µM)	–	–	–
N[C@@H](C(=O)N[C@H]1Cc2ccc(F)c(C(=O)O)c2OB1O)c1ccc(OS(=O)(=O)F)cc1 [Example 32, (R)-3-((R)-2-amino-2-(4-((fluorosulfonyl)oxy)phenyl)acetamido)-7-fluoro-2-hydroxy-3,4-dihydro-2H-benzo[e][1,2]oxaborinine-8-carboxylic acid]	> 500 µM	A (A represents a potency of >500 μM)	> 128 µg/mL	–	> 128 µg/mL	> 128 µg/mL	–	–	> 128 µg/mL	> 128 µg/mL	> 128 µg/mL	> 128 µg/mL
NCCCN1CCN(C(=O)NC(C(=O)N[C@H]2Cc3cccc(C(=O)O)c3OB2O)c2ccc(C(=O)O)cc2)C(=O)C1=O (stereo partly drawn) [Example 39, (3R)-3-(2-(4-(3-aminopropyl)-2,3-dioxopiperazine-1-carboxamido)-2-(4-carboxyphenyl)acetamido)-2-hydroxy-3,4-dihydro-2H-benzo[e][1,2]oxaborinine-8-carboxylic acid]	< 30 µM	D (D represents a potency <10 μM)	> 128 µg/mL	8 to 16 µg/mL (≈ 13.8 to 27.5 µM)	32 to 64 µg/mL (≈ 55 to 110 µM)	> 128 µg/mL	0.5 to 1 µg/mL (≈ 0.86 to 1.72 µM)	< 0.25 µg/mL	8 to 16 µg/mL (≈ 13.8 to 27.5 µM)	–	–	–
NS(=O)(=O)NC(C(=O)N[C@H]1Cc2ccc(F)c(C(=O)O)c2OB1O)c1ncc(O)cc1F (stereo partly drawn) [Example 43, (3R)-7-fluoro-3-(2-(3-fluoro-5-hydroxypyridin-2-yl)-2-(sulfamoylamino)acetamido)-2-hydroxy-3,4-dihydro-2H-benzo[e][1,2]oxaborinine-8-carboxylic acid]	> 500 µM	C (C represents a potency between 10 and 30 μM)	> 128 µg/mL	> 128 µg/mL	> 128 µg/mL	> 128 µg/mL	> 128 µg/mL	2 to 4 µg/mL (≈ 4.24 to 8.47 µM)	> 128 µg/mL	–	–	–
NS(=O)(=O)NC(C(=O)N[C@H]1Cc2cccc(C(=O)O)c2OB1O)c1ccc(C(=O)O)c(F)c1 (stereo partly drawn) [Example 44, (3R)-3-(2-(4-carboxy-3-fluorophenyl)-2-(sulfamoylamino)acetamido)-2-hydroxy-3,4-dihydro-2H-benzo[e][1,2]oxaborinine-8-carboxylic acid]	> 500 µM	C (C represents a potency between 10 and 30 μM)	> 128 µg/mL	> 128 µg/mL	> 128 µg/mL	> 128 µg/mL	> 128 µg/mL	32 to 64 µg/mL (≈ 66.5 to 133 µM)	> 128 µg/mL	–	–	–
CCN1CCN(C(=O)NC(C(=O)N[C@H]2Cc3cccc(C(=O)O)c3OB2O)c2ccc(C(N)=O)c(O)c2)C(=O)C1=O (stereo partly drawn) [Example 45, (3R)-3-(2-(4-carbamoyl-3-hydroxyphenyl)-2-(4-ethyl-2,3-dioxopiperazine-1-carboxamido)acetamido)-2-hydroxy-3,4-dihydro-2H-benzo[e][1,2]oxaborinine-8-carboxylic acid]	< 30 µM	D (D represents a potency <10 μM)	> 128 µg/mL	> 128 µg/mL	32 to 64 µg/mL (≈ 56.4 to 113 µM)	> 128 µg/mL	2 to 4 µg/mL (≈ 3.53 to 7.05 µM)	< 0.25 µg/mL	2 to 4 µg/mL (≈ 3.53 to 7.05 µM)	–	–	–
NC(=O)c1ccc(C(NC(=O)N2CCN(CCF)C(=O)C2=O)C(=O)N[C@H]2Cc3cccc(C(=O)O)c3OB2O)cc1O (stereo partly drawn) [Example 46, (3R)-3-(2-(4-carbamoyl-3-hydroxyphenyl)-2-(4-(2-fluoroethyl)-2,3-dioxopiperazine-1-carboxamido)acetamido)-2-hydroxy-3,4-dihydro-2H-benzo[e][1,2]oxaborinine-8-carboxylic acid]	< 30 µM	D (D represents a potency <10 μM)	32 to 64 µg/mL (≈ 54.7 to 109 µM)	> 128 µg/mL	32 to 64 µg/mL (≈ 54.7 to 109 µM)	> 128 µg/mL	2 to 4 µg/mL (≈ 3.42 to 6.83 µM)	< 0.25 µg/mL	2 to 4 µg/mL (≈ 3.42 to 6.83 µM)	–	–	–
NCCCN1CCN(C(=O)NC(C(=O)N[C@H]2Cc3cccc(C(=O)O)c3OB2O)c2ccc(C(N)=O)c(O)c2)C(=O)C1=O (stereo partly drawn) [Example 47, (3R)-3-(2-(4-(3-aminopropyl)-2,3-dioxopiperazine-1-carboxamido)-2-(4-carbamoyl-3-hydroxyphenyl)acetamido)-2-hydroxy-3,4-dihydro-2H-benzo[e][1,2]oxaborinine-8-carboxylic acid]	30 to 500 µM	D (D represents a potency <10 μM)	> 128 µg/mL	32 to 64 µg/mL (≈ 53.7 to 107 µM)	> 128 µg/mL	> 128 µg/mL	8 to 16 µg/mL (≈ 13.4 to 26.8 µM)	< 0.25 µg/mL	2 to 4 µg/mL (≈ 3.35 to 6.71 µM)	–	–	–
CCN1CCN(C(=O)NC(C(=O)N[C@H]2Cc3cccc(C(=O)O)c3OB2O)c2ccc(C(=O)O)c(OC)c2)C(=O)C1=O (stereo partly drawn) [Example 48, (3R)-3-(2-(4-carboxy-3-methoxyphenyl)-2-(4-ethyl-2,3-dioxopiperazine-1-carboxamido)acetamido)-2-hydroxy-3,4-dihydro-2H-benzo[e][1,2]oxaborinine-8-carboxylic acid]	< 30 µM	D (D represents a potency <10 μM)	> 128 µg/mL	> 128 µg/mL	> 128 µg/mL	> 128 µg/mL	2 to 4 µg/mL (≈ 3.43 to 6.87 µM)	0.5 to 1 µg/mL (≈ 0.859 to 1.72 µM)	8 to 16 µg/mL (≈ 13.7 to 27.5 µM)	–	–	–
O=C(Nc1ccccc1)NC(C(=O)N[C@H]1Cc2ccc(F)c(C(=O)O)c2OB1O)c1ncc(O)cc1F (stereo partly drawn) [Example 49, (3R)-7-fluoro-3-(2-(3-fluoro-5-hydroxypyridin-2-yl)-2-(3-phenylureido)acetamido)-2-hydroxy-3,4-dihydro-2H-benzo[e][1,2]oxaborinine-8-carboxylic acid]	30 to 500 µM	D (D represents a potency <10 μM)	> 128 µg/mL	> 128 µg/mL	> 128 µg/mL	> 128 µg/mL	32 to 64 µg/mL (≈ 62.5 to 125 µM)	2 to 4 µg/mL (≈ 3.9 to 7.81 µM)	32 to 64 µg/mL (≈ 62.5 to 125 µM)	–	–	–

From patent publication US20230114728A1 (Venatorx Pharmaceuticals, Inc., priority 2019, published 2023)
